Measurements: US10940188B2, “Compounds and methods for treatment and prevention of Flavivirus infection” (priority 2016, dated 2021)
Entries after “also recorded” stand apart in the source; their conditions may differ.

Assays:
[1] = system: liver injury in chronic Hepatitis C patients; conditions: chronic HCV patients; cited from earlier work
[2] = system: human forebrain-specific organoids infected by FSS13025; test: Immunostaining of ZIKV-infected forebrain-specific organoids for cleaved caspase-3 and ZIKVE; assay type: cell-based; conditions: FSS13025 infection, 10 days
From the text: FIGS. 1A-1, 1A-2, 1A-3, 1B-1, 1B-2, 1C-1, and 1C-2. Emricasan suppresses cell death of ZIKV-infected human astrocytes and hNPCs in 2D monolayer cultures and 3D brain organoids. Emricasan (FIG. 1A-1) inhibits caspase-3 activity and improves cell viability in human astrocytes infected with three different strains of ZIKV in a concentration dependent manner. Value represent mean±s.d. (n=3). The curves (FIGS. 1A-2 and 1A-3) represent best fit. (FIG. 1B) Sample images of immunostaining (FIG. 1B-1) of forebrain-specific hNPCs for ZIKV envelop protein (ZIKVE; green) and cleaved-caspase 3 (Cas3; red) and DAPI (gray) 72 hours after ZIKV FSS-13025 infection (MOI=0.04-0.08; Scale bar: 20 μm), and quantification (FIG. 1B-2). Values represent mean±s.e.m. (n=3; **P<0.01; Student's t-test). Sample images (FIG. 1C-1) of immunostaining of day 28 human forebrain-specific organoids for ZIKVE (green) and Cas3 (red) and DAPI (gray) 10 days after ZIKV FSS-13025 infection (Scale bar: 100 μm), and quantification (FIG. 1C-2). Values represent mean±s.e.m. (n=6; ***P<0.001; Student's t-test).
Forebrain-specific organoids were generated from the C2-1 human iPSC line as previously described. Briefly, human iPSC colonies were detached 7 days after passage with Collagenase Type IV, washed with fresh stem cell medium and cultured in a 15 ml conical tube. […]

[3] = system: liver injury and fibrosis; conditions: murine NASH model; cited from earlier work
activated caspases = conditions: in vitro; cited from earlier work
[4] = oral, BID, ×4 days, cited from earlier work
[5] = system: hNPCs infected with ZIKV PRVABC59; test: hNPC proliferation after ZIKV infection (EdU); assay type: cell-based, human; conditions: PHA-690509 1 μM, Seliciclib 5 μM
Method: (§1) FIGS. 17A-17C. Analysis of potential toxicity of CDKis on human astrocyte viability and hNPC proliferation. Human iPSC-derived astrocytes (BJ line) were treated with each indicated compound (cpd) for 25 hours prior to cell viability analysis as measured in relative luciferase units for ATP production. Values represent mean+s.d. (n=3 cultures; ***P<0.001; **P<0.01; One-way ANOVA for comparison with the DMSO treatment). RLU: relative luminescence units. hNPCs were treated with saline, PHA-690509 (PHA, 1 μM) or Seliciclib (5 μM), 1 hour prior to ZIKV PRVABC59 infection (MOI=0.08). At 72 hours post infection, EdU (10 μM) was added to hNPCs and cells were cultured for additional 4 hours prior to fixation and staining for EdU and DAPI. Values represent mean+s.e.m. (n=3 cultures; ***P<0.001; One-way ANOVA for comparison with the mock treatment). Day 20 forebrain-specific brain organoids were treated with PHA-690509 (1 μM) or Seliciclib (5 μM) for 3 days and hNPC proliferation was evaluated by phospho-Histone 3 (PH3) expression within the ventricular zone. Values represent mean+s.e.m. (n=8 organoids; P>0.05; One-way ANOVA for comparison with the mock treatment).

[6] = system: forebrain-specific brain organoids; test: hNPC proliferation in forebrain organoids (phospho-Histone 3), compound alone; assay type: cell-based, human; conditions: 3 days
Method: as §1

HEK293 cells = test: Toxicity IC50 (cell-killing activity) of the NS1 TR-FRET screen; assay type: cell-based, human; conditions: cell-killing activity
ZIKV MR766 NS1 = test: microbe, parasite or virus in culture; assay type: cell-based, Zika virus; conditions: Zika virus, HEK293, 48 h, read-out: NS1-IC50
Method: A one-step NS1 TR-FRET (Time-resolved fluorescence resonance energy transfer) assay for a screen of anti-ZIKV compounds was carried out. Human embryonic kidney cell line HEK293 cells were seeded into 384-well plates and infected with ZIKV MR766 at a MOI of 0.5 for 2 days. The FRET assay was performed with two clones of anti-NS1 antibody (ab) differentially labelled with donor and acceptor fluorophores.

For C[C@H](NC(=O)C(=O)Nc1ccccc1C(C)(C)C)C(=O)N[C@@H](CC(=O)O)C(=O)COc1c(F)c(F)cc(F)c1F [Emricasan], the “liver injury and tolerability in clinical trials” value [1] is listed as “reduced liver injury and was tolerated over 12 weeks; also recorded: well tolerated in human trials without significant adverse events”, the “number of cleaved caspase-3-expressing hNPCs, 3D organoid cultures” value [2] is listed as “reduced the number of active (cleaved) caspase-3-expressing forebrain-specific hNPCs” and the “liver injury and fibrosis” value [3] is listed as “reduces liver injury and fibrosis”. For the same compound, the “activity against activated caspases” value (activated caspases) was “sub- to nano-molar activity”, the “maximum (Cmax) concentration in human blood” value [4] was 2360 ng/mL and the Cmax ([4]; read-out: maximum (Cmax) concentration in human blood, value in brackets) was 4.15 µM.

In the case of CC(=O)Nc1ccc([C@H](C)C(=O)Nc2ncc(C(C)C)s2)cc1 [PHA-690509], the “rescue of ZIKV-induced reduction of hNPC proliferation” value [5] is reported as “partially rescued ZIKV-induced reduction of hNPC proliferation” and the “effect of the treatment itself on hNPC proliferation” value [6] is reported as “minimal effect on hNPC proliferation in brain organoids”.

For CC[C@H]1CN2CCc3cc(OC)c(OC)cc3[C@@H]2C[C@@H]1C[C@H]1NCCc2cc(OC)c(OC)cc21 [Emetine], the “Tox IC50” value (HEK293 cells) was “No” and the IC50 (ZIKV MR766 NS1) was 114 nM.
